Assay results reported in PubChem BioAssay (NCI).
Several values for one entry are separate records, joined by “and”; a condition that tells them apart may be missing. Equal entries are not always repeated.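 Following 48 hours of exposure in 96-well plates, responses at five concentrations were used to interpolate endpoints linearly. GI50 = concentration required for 50% inhibition of growth. TGI: concentration producing complete growth inhibition.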

How the values were obtained:
Test in all cases: growth of human tumour cells (NCI), 48 h
K-562 leukemia = system: K-562 leukemia
LOX IMVI melanoma = system: LOX IMVI melanoma
TK-10 renal = system: TK-10 renal
SK-MEL-28 melanoma = system: SK-MEL-28 melanoma
OVCAR-8 ovarian = system: OVCAR-8 ovarian
MOLT-4 leukemia = system: MOLT-4 leukemia
IGROV1 ovarian = system: IGROV1 ovarian
A549 NSCLC = system: A549 NSCLC
OVCAR-4 ovarian = system: OVCAR-4 ovarian
NCI-H23 lung = system: NCI-H23 lung
MDA-MB-468 breast = system: MDA-MB-468 breast
HOP-62 NSCLC = system: HOP-62 NSCLC
HCT-116 colon = system: HCT-116 colon
SF-295 CNS = system: SF-295 CNS
MALME-3M melanoma = system: MALME-3M melanoma
HOP-92 NSCLC = system: HOP-92 NSCLC
RXF 393 renal = system: RXF 393 renal
COLO 205 colon = system: COLO 205 colon
OVCAR-5 ovarian = system: OVCAR-5 ovarian
HT29 colon = system: HT29 colon
NCI-H460 lung = system: NCI-H460 lung
SW-620 colon = system: SW-620 colon
T-47D breast = system: T-47D breast
HCC-2998 colon = system: HCC-2998 colon
SNB-19 CNS = system: SNB-19 CNS
ACHN renal = system: ACHN renal
PC-3 prostate = system: PC-3 prostate
CAKI-1 renal = system: CAKI-1 renal
CCRF-CEM leukemia = system: CCRF-CEM leukemia
SK-OV-3 ovarian = system: SK-OV-3 ovarian
DU-145 prostate = system: DU-145 prostate
MCF7 breast = system: MCF7 breast
786-0 renal = system: 786-0 renal
KM12 colon = system: KM12 colon
SR leukemia = system: SR leukemia
SN12C renal = system: SN12C renal
HL-60(TB) leukemia = system: HL-60(TB) leukemia
MDA-MB-435 = system: MDA-MB-435
UACC-62 melanoma = system: UACC-62 melanoma
RPMI-8226 leukemia = system: RPMI-8226 leukemia
M14 melanoma = system: M14 melanoma
SF-268 CNS = system: SF-268 CNS
BT-549 breast = system: BT-549 breast
NCI-H522 lung = system: NCI-H522 lung
SK-MEL-5 melanoma = system: SK-MEL-5 melanoma
HCT-15 colon = system: HCT-15 colon
EKVX NSCLC = system: EKVX NSCLC
A498 renal = system: A498 renal
SF-539 CNS = system: SF-539 CNS
U251 CNS = system: U251 CNS
OVCAR-3 ovarian = system: OVCAR-3 ovarian
NCI/ADR-RES ovarian = system: NCI/ADR-RES ovarian
HS 578T breast = system: HS 578T breast
NCI-H226 lung = system: NCI-H226 lung

SMILES: CC(C)C[C@H](NC(=O)CNC(=O)C[C@H]1O[C@@H]2OC3(C)CC[C@H]4[C@H](C)CC[C@@H]([C@H]1C)[C@@]24O3)B(O)O
- GI50 (K-562 leukemia): 3.69 µM
- TGI (K-562 leukemia): > 100 µM
- GI50 (LOX IMVI melanoma): 1.44 µM
- TGI (LOX IMVI melanoma): 3.14 µM
- GI50 (TK-10 renal): 3.01 µM
- TGI (TK-10 renal): 20.1 µM
- GI50 (SK-MEL-28 melanoma): 1.45 µM
- TGI (SK-MEL-28 melanoma): 7.28 µM
- GI50 (OVCAR-8 ovarian): 3.58 µM
- TGI (OVCAR-8 ovarian): 17.6 µM
- GI50 (MOLT-4 leukemia): 0.332 µM
- TGI (MOLT-4 leukemia): 1.92 µM
- GI50 (IGROV1 ovarian): 6.94 µM
- TGI (IGROV1 ovarian): 34.4 µM
- GI50 (A549 NSCLC): 3.93 µM
- TGI (A549 NSCLC): > 100 µM
- GI50 (OVCAR-4 ovarian): 5.64 µM
- TGI (OVCAR-4 ovarian): > 100 µM
- GI50 (NCI-H23 lung): 3.1 µM
- TGI (NCI-H23 lung): 11.8 µM
- GI50 (MDA-MB-468 breast): 1.43 µM
- TGI (MDA-MB-468 breast): 3.57 µM
- GI50 (HOP-62 NSCLC): 3.89 µM
- TGI (HOP-62 NSCLC): 18.4 µM
- GI50 (HCT-116 colon): 1.46 µM
- TGI (HCT-116 colon): 3.7 µM
- GI50 (SF-295 CNS): 2.45 µM
- TGI (SF-295 CNS): 11.3 µM
- GI50 (MALME-3M melanoma): 1.22 µM
- TGI (MALME-3M melanoma): 4.4 µM
- GI50 (HOP-92 NSCLC): 3.12 µM
- TGI (HOP-92 NSCLC): 9.51 µM
- GI50 (RXF 393 renal): 0.738 µM
- TGI (RXF 393 renal): 2.18 µM
- GI50 (COLO 205 colon): 4.79 µM
- TGI (COLO 205 colon): 22.2 µM
- GI50 (OVCAR-5 ovarian): 2.53 µM
- TGI (OVCAR-5 ovarian): 13.8 µM
- GI50 (HT29 colon): 1.67 µM
- TGI (HT29 colon): 4.63 µM
- GI50 (NCI-H460 lung): 4.72 µM
- TGI (NCI-H460 lung): 23 µM
- GI50 (SW-620 colon): 2.78 µM
- TGI (SW-620 colon): 17.8 µM
- GI50 (T-47D breast): 2.19 µM
- TGI (T-47D breast): 5.88 µM
- GI50 (HCC-2998 colon): 1.92 µM
- TGI (HCC-2998 colon): 3.46 µM
- GI50 (SNB-19 CNS): 5.83 µM
- TGI (SNB-19 CNS): > 100 µM
- GI50 (ACHN renal): 3.99 µM
- TGI (ACHN renal): > 100 µM
- GI50 (PC-3 prostate): 5.47 µM
- TGI (PC-3 prostate): 67 µM
- GI50 (CAKI-1 renal): 16.8 µM
- TGI (CAKI-1 renal): > 100 µM
- GI50 (CCRF-CEM leukemia): 0.502 µM
- TGI (CCRF-CEM leukemia): 3.88 µM
- GI50 (SK-OV-3 ovarian): 6.45 µM
- TGI (SK-OV-3 ovarian): 35.2 µM
- GI50 (DU-145 prostate): 13.5 µM
- TGI (DU-145 prostate): > 100 µM
- GI50 (MCF7 breast): 1.36 µM
- TGI (MCF7 breast): 41 µM
- GI50 (786-0 renal): 4.22 µM
- TGI (786-0 renal): 53.6 µM
- GI50 (KM12 colon): 2.71 µM
- TGI (KM12 colon): 7.32 µM
- GI50 (SR leukemia): 0.303 µM
- TGI (SR leukemia): 1.5 µM
- GI50 (SN12C renal): 2.98 µM
- TGI (SN12C renal): 12 µM
- GI50 (HL-60(TB) leukemia): 0.514 µM
- TGI (HL-60(TB) leukemia): 4.15 µM
- GI50 (MDA-MB-435): 1.38 µM
- TGI (MDA-MB-435): 3.93 µM
- GI50 (UACC-62 melanoma): 1.92 µM
- TGI (UACC-62 melanoma): 4.61 µM
- GI50 (RPMI-8226 leukemia): 0.272 µM
- TGI (RPMI-8226 leukemia): 1.38 µM
- GI50 (M14 melanoma): 1.91 µM
- TGI (M14 melanoma): 4.82 µM
- GI50 (SF-268 CNS): 3.51 µM
- TGI (SF-268 CNS): 97.5 µM
- GI50 (BT-549 breast): 0.537 µM
- TGI (BT-549 breast): 2.45 µM
- GI50 (NCI-H522 lung): 1.63 µM
- TGI (NCI-H522 lung): 3.3 µM
- GI50 (SK-MEL-5 melanoma): 1.79 µM
- TGI (SK-MEL-5 melanoma): 3.67 µM
- GI50 (HCT-15 colon): 6.42 µM
- TGI (HCT-15 colon): 24.1 µM
- GI50 (EKVX NSCLC): 7.94 µM
- TGI (EKVX NSCLC): 79.6 µM
- GI50 (A498 renal): 6.87 µM
- TGI (A498 renal): 49 µM
- GI50 (SF-539 CNS): 1.32 µM
- TGI (SF-539 CNS): 3.08 µM
- GI50 (U251 CNS): 3.61 µM
- TGI (U251 CNS): 17.6 µM
- GI50 (OVCAR-3 ovarian): 1.78 µM
- TGI (OVCAR-3 ovarian): 4.27 µM
- GI50 (NCI/ADR-RES ovarian): 40.6 µM
- TGI (NCI/ADR-RES ovarian): > 100 µM
- GI50 (HS 578T breast): 3.5 µM
- TGI (HS 578T breast): 70.6 µM
- GI50 (NCI-H226 lung): 0.645 µM
- TGI (NCI-H226 lung): 2.14 µM

SMILES: CCN1C(=O)N(CC)C2C1NN=c1s/c(=C\c3ccc(F)cc3)c(=O)n12 (stereo not drawn)
- GI50 (MDA-MB-468 breast): 0.168 µM
- TGI (MDA-MB-468 breast): > 100 µM

SMILES: COc1ccc(/C=C(/C)[N+](=O)[O-])cc1OC
- GI50 (MDA-MB-468 breast): 1.34 µM and 1.15 µM
- TGI (MDA-MB-468 breast): 2.77 µM and 2.53 µM

SMILES: c1ccc(N=C2c3ccsc3C(=Nc3ccccc3)c3ccsc32)cc1
- GI50 (MDA-MB-468 breast): 1.78 µM
- TGI (MDA-MB-468 breast): 3.61 µM

SMILES: C[n+]1c2ccccc2nc2c(N)cc(N)cc21
- GI50 (MDA-MB-468 breast): 1.18 µM
- TGI (MDA-MB-468 breast): 4.98 µM

SMILES: Oc1cccc2c1NCCC2
- GI50 (MDA-MB-468 breast): 1.83 µM
- TGI (MDA-MB-468 breast): 8.49 µM

SMILES: O=C(CSc1nnc(-c2ccc(Cl)cc2)n1-c1ccccc1)Nc1ccc(Cl)cc1
- GI50 (MDA-MB-468 breast): 2.83 µM
- TGI (MDA-MB-468 breast): 8.27 µM

SMILES: O=C(CN1N=C(c2ccc(F)cc2)CCC1=O)Nc1nc2ccccc2s1
- GI50 (MDA-MB-468 breast): 21.1 µM
- TGI (MDA-MB-468 breast): 85.9 µM

SMILES: O=C1C(OCCOc2ccccc2)=C(OCCOc2ccccc2)C(=O)c2ccccc21
- GI50 (MDA-MB-468 breast): 9.92 µM
- TGI (MDA-MB-468 breast): > 100 µM

SMILES: COc1ccc(/C=C(\C)[N+](=O)[O-])cc1OC
- GI50 (MDA-MB-468 breast): 1.48 µM
- TGI (MDA-MB-468 breast): 3.05 µM

SMILES: COc1cc2c(cc1F)C(c1ccccc1Cl)=Nc1c(n[nH]c1C)N2
- GI50 (MDA-MB-468 breast): 0.342 µM
- TGI (MDA-MB-468 breast): 3.73 µM
